According to publication PMC12181424, “A genetically tractable branch of environmental Pedobacter from the phylum Bacteroidota represents a hotspot for natural product discovery” (Scientific Reports, 2025):
Non-standard residues stand in square brackets, D forms with d. Residues, ends and D or L forms follow the SMILES beside them. *: point of attachment. Isovaleryl = CC(C)CC(=O)*; ΔVal = CC(C)=C(N)C(=O)O; X1 = CC[C@H](C)C(=O)*

How the values were obtained:
[1] = tested on: Escherichia coli ATCC35218; format: cell-based
[2] = tested on: Mycobacterium smegmatis ATCC607; format: cell-based
[3] = tested on: Staphylococcus aureus ATCC33592; format: cell-based
Candida albicans FH2173 = format: cell-based
[4] = tested on: Septoria tritici MUCL45407; format: cell-based
[5] = tested on: human cysteine protease cathepsin B; assay: Cysteine protease inhibition testing; format: biochemical; details: tested concentration 20 µM; procedure of Brinkmann et al.
[6] = tested on: human cysteine protease cathepsin L; assay: Cysteine protease inhibition testing; format: biochemical; details: tested concentration 20 µM; procedure of Brinkmann et al.
rhodesain = details: tested concentration 20 µM; procedure of Brinkmann et al.
Excerpt: The cryopeptins are linear lipopeptides containing the non-proteinogenic amino acid dehydrovaline. This amino acid is a rare building block, and its occurrence is yet limited to linear peptides. For instance, dehydrovaline is found in cytotoxic yakuamides from the sponge Ceratopsion sp[42]. and in the myxobacterial antibiotic myxovalargin[43]. […] In addition, 4 and 5 underwent screening against the human cysteine proteases cathepsin B and L, and rhodesain, the cysteine protease of Trypanosoma brucei rhodesiense according to the procedure described in[45].
The minimum inhibitory concentrations (MIC) of pure compounds were determined as described by Orban et al.3 Pure compounds were screened against Escherichia coli ATCC35218, Mycobacterium smegmatis ATCC607, Staphylococcus aureus ATCC33592, Candida albicans FH2173 and Septoria tritici MUCL45407. Protease testings (human cysteine proteases cathepsin B and L, trypanosomal cysteine protease rhodesain) were performed at concentrations of 20 μM as described in Brinkmann et al.4.

[7] = tested on: bacterial and fungal indicator strains; assay: Screening against bacterial and fungal indicator strains (whole panel, as summarised in the text); format: cell-based; details: summary in the text of Table S11; no growth inhibitory effects
[8] = tested on: P. cryoconitis DSM 14825^T; assay: Antibiotic sensitivity screen of wild-type strain (choice of selection marker); format: cell-based, Pedobacter cryoconitis; details: P. cryoconitis DSM 14825^T wild type
Excerpt: (§1) We built a random transposon insertion plasmid (pCRYO1 (Fig. S2)) based on a HIMAR transposon pSAMbt system, initially designed for Bacteroides thetaiotaomicron in which we introduced the constitutive P. cryoconitis promoters of gyrB and rpl13 and used erythromycin as a resistance marker[41] (Fig. 3A). We obtained erythromycin-resistant clones by conjugation and electroporation and confirmed the presence of the ermR gene by colony PCR (Material and Methods).
(§2) To genetically modify P. cryoconitis, we first screened different antibiotics (streptomycin, ampicillin, kanamycin, apramycin, chloramphenicol, and erythromycin) against P. cryoconitis PAMC 27485 and P. cryoconitis DSM 14825^T. Only erythromycin (100 µg/ml) and chloramphenicol (150 µg/ml) were effective and selected as markers. A transposon plasmid, pCRYO-01 was modified based on pSAM bt[30] by assembling PCR-amplified regions upstream of the P. cryoconitis PAMC 27485 gyrB (AMQ00279.1, 228 bps) and rpl13 genes (AMQ00867.1, 178 bps) with the erythromycin resistance (ermR) and the transposase genes via Gibson Assembly. PCR reactions were carried out using Q5 polymerase (New England Biolabs) as specified by the manufacturer. Conjugation experiments were performed using E. coli WM3064/pCRYO-01 and P. cryoconitis (overnight cultures) on LB, POM, and R2A (with 5 mM final MgCl2) agar with different donor-recipient ratios (1:1, 2:1, 3:1) for 48 h. Cells were scraped off, serially diluted, and plated on R2A agar plates with erythromycin (50, 100, 150, and 200 µg/ml). Erythromycin-resistant colonies were tested for ermR presence and plasmid backbone absence by colony PCR. A 3:1 donor-recipient ratio at 23 °C yielded the highest number of transformants. Dilution of the inoculum at 10^− 1 or 10^− 2 was optimal for single colonies, with more transformants observed in P. cryoconitis PAMC 27485 compared to P. cryoconitis DSM 14825^T. For electroporation, P. cryoconitis PAMC 27485 cells (OD 0.4) were made competent by washing 3-times with ice-cold 10% glycerol (centrifugation at 5000 rpm). Aliquots of 50 µl were mixed with pCRYO1. After electroporation (12.5 kV/cm), cells were cultured without antibiotics for 5 h, then plated on R2A with 150 µg/ml erythromycin. Colonies appeared within 3 days, with 100% carrying the transposon cassette, though efficiency was lower than with conjugation. Electroporation of competent cells stored at -80 °C was also possible.

[9] = tested on: P. cryoconitis PAMC 27485; assay: as above; format: cell-based, Pedobacter cryoconitis; details: P. cryoconitis PAMC 27485 wild type
Excerpt: as §1, §2

Structure (SMILES) | MIC Escherichia coli ATCC 35218 [1] [µg/mL] | MIC Myobacterium smegmatis ATCC607 [2] [µg/mL] | MIC Staphylococcus aureus ATCC 33592 [3] [µg/mL] | MIC Candida albicans FH2173 (Candida albicans FH2173) [µg/mL] | MIC Septoria tritici MUCL45407 [4] [µg/mL] | protease inhibitory activity, cathepsin B [5] | protease inhibitory activity, cathepsin L [6] | protease inhibitory activity, rhodesain (rhodesain) | Minimal inhibitory concentration against bacterial and fungal indicator strains [7] [µg/mL] | concentration that inhibited the growth of the wild-type strain [8] [µg/mL] | concentration that inhibited the growth of the wild-type strain [9] [µg/mL]
CC(C)=C(NC(=O)[C@H](Cc1ccccc1)NC(=O)CC(C)C)C(=O)N[C@@H](CCCNC(=N)N)C(=O)NC(C(=O)N[C@@H](CC(C)C)C(=O)O)=C(C)C [cryopeptin E (5)] (Isovaleryl-F[ΔVal]R[ΔVal]L-OH; N-terminus and C-terminus assumed) | >128 | >128 | >128 | >128 | >128 | no protease inhibitory activity was observed | no protease inhibitory activity was observed | no protease inhibitory activity was observed | – | – | –
CC[C@H](C)C(=O)N[C@@H](Cc1ccccc1)C(=O)NC(C(=O)N[C@@H](CCCNC(=N)N)C(=O)NC(C(=O)N[C@@H](CC(C)C)C(=O)O)=C(C)C)=C(C)C [cryopeptin D (4)] (X1-F[ΔVal]R[ΔVal]L-OH) | >128 | >128 | >128 | >128 | >128 | no protease inhibitory activity was observed | no protease inhibitory activity was observed | no protease inhibitory activity was observed | > 128 | – | –
CC[C@H]1OC(=O)[C@H](C)[C@@H](O[C@H]2C[C@@](C)(OC)[C@@H](O)[C@H](C)O2)[C@H](C)[C@@H](O[C@@H]2O[C@H](C)C[C@H](N(C)C)[C@H]2O)[C@](C)(O)C[C@@H](C)C(=O)[C@H](C)[C@@H](O)[C@]1(C)O [erythromycin] | – | – | – | – | – | – | – | – | – | 100 | 100
O=C(N[C@H](CO)[C@H](O)c1ccc([N+](=O)[O-])cc1)C(Cl)Cl [chloramphenicol] | – | – | – | – | – | – | – | – | – | 150 | 150
